One test deals with HDAC in cells. Nature of the test: Cellular HDAC inhibition (cellular histone hyperacetylation / cytotoxicity assays; Table 1 only says Cellular IC50). Type of test: cell-based. The conditions noted are these: transformed cell lines (e.g. HeLa, A549, MCF-7); cell line not given. Here is the method:
2) Cellular Histone Hyperacetylation Assays:
These two secondary assays evaluate a compound's ability to inhibit HDAC in cells by measuring cellular histone acetylation levels. The cytoblot facilitates quantitative EC50 information for cellular HDAC inhibition. Transformed cell lines (e.g. HeLa, A549, MCF-7) are cultured under standard media and culture conditions prior to plating.
Cells (approx. 2,500/well) are allowed to adhere 10-24 hours to wells of a 384-well Greiner PS assay plate in media containing 1-5% serum. Cells are treated with appropriate compound and specific concentrations for 0 to 24 hours. Cells are washed once with PBS (60 μL) and then fixed (95% ethanol, 5% acetic acid or 2% PFA) for 1 minute at RT (30 μL). Cells are blocked with 1% BSA for 1 hour and washed and stained with antibody (e.g. anti-Acetylated Histone H3, Upstate Biotechnology), followed by washing and incubation with an appropriate secondary antibody conjugated to HRP or fluorophore. For luminescence assays, signal is generated using Luminol substrate (Santa Cruz Biotechnology) and detected using an Aquest plate reader (Molecular Devices).
3) Differential Cytotoxicity Assay:
HDAC inhibitors display differential cytotoxicity toward certain transformed cell lines. Cells are cultured according to standard ATCC recommended conditions that are appropriate to each cell type. Compounds were tested for their ability to kill different cell types (normal and transformed) using the ATPlite luminescence ATP detection assay system (Perkin Elmer). Assays are run in either 384-well or 1536-well Greiner PS plates. Cells (30 μL or 5 μL, respectively) are dispensed using either multichannel pipette for 384-well plates, or proprietary Kalypsys bulk liquid dispenser for 1536-well plates. Compounds added using proprietary pin-transfer device (500 nL or 5 nL) and incubated 5 to 30 hours prior to analysis. Luminescence is measured using Aquest plate reader (Molecular Devices).

In another test the test system is HDAC. Briefly: In vitro HDAC-inhibition assay (Fluor de Lys fluorescent activity assay). Format: biochemical. To be noted: HDAC enzyme source (e.g. nuclear extract or immunopurified HDAC complexes), Fluor de Lys substrate, 30 minutes RT. Here is the method:
1) In vitro HDAC-inhibition Assay:
This assay measures a compound's ability to inhibit acetyl-lysine deacetylation in vitro and was used as both a primary screening method as well as for IC50 determinations of confirmed inhibitors. The assay is performed in vitro using an HDAC enzyme source (e.g. partially purified nuclear extract or immunopurified HDAC complexes) and a proprietary fluorescent substrate/developer system (HDAC Quantizyme Fluor de Lys Fluorescent Activity Assay, BIOMOL). The assay is run in 1,536-well Greiner white-bottom plates using the following volumes and order of addition: • Step 1: Enzyme (2.5 μL) source added to plate (from refrigerated container) • Step 2: Compounds (50 nL) added with pin transfer device • Step 3: Fluor de Lys (2.5 μL) substrate added, incubate at RT, 30 minutes • Step 4: Developer (5 μL) solution is added (containing TSA), to stop reaction • Step 5: Plate Reader—data collection
The deacetylated fluorophore is excited with 360 nm light and the emitted light (460 nm) is detected on an automated fluorometric plate reader (Aquest, Molecular Devices).

For orientation: IC50 means the midpoint of a concentration-inhibition curve. Read a high IC50 as weaker potency. `CC(=O)SCC(=O)c1ccc(NS(=O)(=O)c2ccc(OCCCN3CCCC3)cc2)nc1` [Example 33, Thioacetic acid S-(2-oxo-2-{6-[4-(3-pyrrolidin-1-yl-propoxy)-benzenesulfonylamino]-pyridin-3-yl}-ethyl) ester]: the IC50 with HDAC in cells and in the test on HDAC was at most 1000 nM in each case.
As to `CC(=O)SCC(=O)c1ccc(NS(=O)(=O)c2ccc(OCCCCc3ccccc3)cc2)cc1` [Example 13, Thioacetic acid S-(2-oxo-2-{4-[4-(4-phenyl-butoxy)-benzenesulfonylamino]-phenyl}-ethyl) ester], the IC50 with HDAC in cells and in the test with HDAC was at most 1000 nM each time.
As to `CC(=O)SCC(=O)c1ccc(NS(=O)(=O)c2ccc(OCc3cccnc3)cc2)nc1` [Example 27, Thioacetic acid S-(2-oxo-2-{6-[4-(pyridin-3-ylmethoxy)-benzenesulfonylamino]-pyridin-3-yl}-ethyl) ester], the IC50 in the test with HDAC in cells and with HDAC was at most 1000 nM throughout.
For `CC(=O)SCC(=O)c1ccc(NS(=O)(=O)c2ccc(OCC3CCCN(C)C3)cc2)nc1` (stereo not drawn) [Example 31, Thioacetic acid S-(2-{6-[4-(1-methyl-piperidin-3-ylmethoxy)-benzenesulfonylamino]-pyridin-3-yl}-2-oxo-ethyl) ester], the IC50 in the test with HDAC in cells and in the test on HDAC was at most 1000 nM throughout.
As for `CC(=O)SCC(=O)c1ccc(NS(=O)(=O)c2ccc(OCCCN3CCOCC3)cc2)nc1` [Example 11, Thioacetic acid S-(2-{6-[4-(3-morpholin-4-yl-propoxy)-benzenesulfonylamino]-pyridin-3-yl}-2-oxo-ethyl) ester], the IC50 in the test with HDAC in cells and in the test with HDAC was at most 1000 nM each time.
`CC(=O)SCC(=O)c1ccc(NS(=O)(=O)c2ccc(OC3CCCN(C)C3)cc2)nc1` (stereo not drawn) [Example 30, Thioacetic acid S-(2-{6-[4-(1-methyl-piperidin-3-yloxy)-benzenesulfonylamino]-pyridin-3-yl}-2-oxo-ethyl) ester]: the IC50 with HDAC in cells and in the test with HDAC was at most 1000 nM throughout.

The values above are taken from US20070135431A1, “INHIBITORS OF HISTONE DEACETYLASE FOR THE TREATMENT OF DISEASE” (KALYPSYS, INC, priority 2005, published 2007).
